Where “and” joins values, the source holds several entries; their conditions need not be identical. Equal values may be shown once.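 Growth conditions: 96-well plates. Treatment: test compound, 48 hours, 5 concentrations. Analysis: linear interpolation between bracketing concentrations; unreached endpoints set to highest concentration. GI50 = concentration required for 50% inhibition of growth. Definition used: TGI = concentration required for complete inhibition of growth.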
Legend:
Test in all cases: inhibition of tumour cell growth, NCI panel, 48 h
[1] = tested on: SNB-19 CNS
[2] = tested on: SNB-75 CNS
[3] = tested on: NCI-H226 lung
[4] = tested on: UACC-62 melanoma
[5] = tested on: HCT-15 colon
[6] = tested on: SF-539 CNS
[7] = tested on: ACHN renal
[8] = tested on: OVCAR-4 ovarian
[9] = tested on: HL-60(TB) leukemia
[10] = tested on: BT-549 breast

Row | SMILES | TGI [1] | TGI [2] | TGI [3] | TGI [4] | TGI [5] | TGI [6] | TGI [7] | TGI [8] | TGI [9] | GI50 [1] | GI50 [9] | GI50 [2] | GI50 [3] | GI50 [4] | GI50 [5] | GI50 [6] | GI50 [7] | GI50 [8] | TGI [10] | GI50 [10]
1 | Cc1cc2c(=O)cc(-c3ccc(Cl)c(Cl)c3)oc2c(C(=O)O)c1C | > 100 µM | > 100 µM | > 100 µM | > 100 µM | > 100 µM | > 100 µM | > 100 µM | > 100 µM | – | – | – | – | – | – | – | – | – | – | – | –
2 | Cc1cc2c(cc1C)[n+](=O)c(C(=O)CC(=O)C(=O)Nc1ccccc1C)c(C)n2[O-] | > 100 µM | > 100 µM | > 100 µM | > 100 µM | > 100 µM | > 100 µM | > 100 µM | > 100 µM | > 100 µM | – | – | – | – | – | – | – | – | – | – | –
3 | O=C([CH-]C(=O)c1ccccc1)c1ccccc1.O=C([CH-]C(=O)c1ccccc1)c1ccccc1.[CH2-]CCC.[CH2-]CCC.[Sn+4] | 1.67 µM | 2.29 µM | 0.938 µM | 1.83 µM | 2.14 µM | 1.94 µM | 1.6 µM | – | 0.606 µM | 0.441 µM | 0.169 µM | 1.04 µM | 0.26 µM | 0.558 µM | 0.636 µM | 0.587 µM | 0.457 µM | – | – | –
4 | N#CC1(C#N)C2C=CC(C3CC=CC32)C1(C#N)C#N (stereo not given) | > 50 µM | – | > 50 µM | 16.9 µM | 4.17 µM and 35.9 µM | 17.2 µM | 7.09 µM and 15.3 µM | 9.16 µM and 18.7 µM | 2.87 µM | – | – | – | – | – | 13.2 µM | – | 8.44 µM | 9.34 µM | – | –
5 | CN(CC(=O)O)S(=O)(=O)c1ccc(Cl)cc1 | > 100 µM | > 100 µM | > 100 µM | > 100 µM | > 100 µM | > 100 µM | > 100 µM | > 100 µM | > 100 µM | – | – | – | – | – | – | – | – | – | – | –
6 | c1ccc2c(CNCCCN3CCN(CCCNCc4cccc5ccccc45)CC3)cccc2c1 | – | 3.15 µM | 7.75 µM | 3.26 µM | 3.47 µM | 3.01 µM | 6.85 µM | 5 µM | 3.45 µM | – | – | – | – | – | – | – | – | – | – | –
7 | N#CCC(=O)N/N=C(/C(=O)Nc1ccccc1)C1C(=O)N(c2ccccc2)N=C1N (stereo not given) | > 100 µM | > 100 µM | > 100 µM | > 100 µM | > 100 µM | > 100 µM | > 100 µM | > 100 µM | > 100 µM | – | – | – | – | – | – | – | – | – | – | –
8 | Cc1cc2c(=O)cc(-c3ccc(O)cc3)oc2c(C(=O)O)c1C | > 100 µM | > 100 µM | > 100 µM | > 100 µM | > 100 µM | > 100 µM | > 100 µM | > 100 µM | > 100 µM | – | – | – | – | – | – | – | – | – | – | –
9 | Nc1cc2c(c3ccccc13)C(CCl)CN2C(=O)c1cc2cc(NC(=O)c3cc4ccccc4o3)ccc2[nH]1 (stereo not given) | 0.408 µM | – | – | 0.0206 µM | 1.15 µM | – | – | – | < 0.11 µM | – | > 0.11 µM | – | – | – | > 0.11 µM | – | 0.000208 µM | – | 0.00708 µM | –
10 | CC1=CC=C2C(C)(C)CC[C@@H]3OC(=O)[C@H]1[C@]23C | > 100 µM | > 100 µM | > 100 µM | > 100 µM | – | > 100 µM | > 100 µM | > 100 µM | > 100 µM | – | – | – | – | – | – | – | – | – | – | –
11 | COC(=O)Nc1nc2ccc(C(=O)C3CC3)cc2[nH]1 | > 56.5 µM | – | 30.2 µM | > 100 µM | > 100 µM | 3.06 µM | > 100 µM | > 100 µM | > 100 µM | 0.88 µM | 0.448 µM | – | 0.423 µM | 0.487 µM | 0.385 µM | 0.311 µM | 0.79 µM | 0.551 µM | > 30.7 µM | 1.01 µM
12 | Cc1cc2c(=O)cc(-c3ccc(C(=O)O)cc3)oc2c(C(N)=O)c1C | > 100 µM | > 100 µM | – | > 100 µM | > 100 µM | > 100 µM | > 100 µM | > 100 µM | – | – | – | – | – | – | – | – | – | – | – | –
13 | Cc1cc2c(=O)cc(-c3ccc(Cl)cc3Cl)oc2c(C(=O)O)c1C | > 100 µM | > 100 µM | > 100 µM | > 100 µM | > 100 µM | > 100 µM | > 100 µM | > 100 µM | – | – | – | – | – | – | – | – | – | – | – | –
14 | CCC(CO)COC(=O)/C=C/C(=O)OCC(CC)CO (stereo not given) | > 100 µM | > 100 µM | > 100 µM | > 100 µM | > 100 µM | > 100 µM | > 100 µM | > 100 µM | 45.5 µM | – | – | – | – | – | – | – | – | – | – | –
15 | O=[N+]([O-])c1cccc(C=NC23CC4CC(CC(C4)C2)C3)c1 | > 100 µM | > 100 µM | > 100 µM | > 100 µM | > 100 µM | > 100 µM | > 100 µM | > 100 µM | 65.6 µM | – | – | – | – | – | – | – | – | – | – | –
16 | Nc1nc(N)c2cc(Sc3ccc(Cl)cc3)ccc2n1 | 20.8 µM | 18.7 µM | 23.4 µM | 14.5 µM | 14.9 µM | 22.3 µM | 16.4 µM | 18.9 µM | 2.47 µM | 3.71 µM | 0.6 µM | 5.89 µM | 9.71 µM | 0.795 µM | 0.491 µM | 3.1 µM | 0.666 µM | 3.91 µM | – | –
17 | CCOc1ccc(N=C2NC(=O)C(CC(=O)Nc3ccc(Cl)cc3Cl)S2)cc1 (stereo not given) | > 100 µM | > 100 µM | – | > 100 µM | > 100 µM | > 100 µM | > 100 µM | > 100 µM | – | – | – | – | – | – | – | – | – | – | – | –
18 | Clc1ccc(Nc2ncnc3ccccc23)cc1 | > 100 µM | – | > 100 µM | > 100 µM | > 100 µM | > 100 µM | 71.7 µM | > 100 µM | > 100 µM | > 100 µM | 36.7 µM | – | 57.2 µM | 78 µM | 25.2 µM | > 100 µM | 11.1 µM | > 100 µM | > 100 µM | 72.8 µM
19 | CN1C(=O)CNS1(=O)=O | > 100 µM | > 100 µM | > 100 µM | > 100 µM | > 100 µM | > 100 µM | > 100 µM | – | > 100 µM | – | – | – | – | – | – | – | – | – | – | –
20 | CNC(=O)N(CCCC(NC(C)=O)C(=O)NCc1ccccc1)Cc1ccccc1 (stereo not given) | > 100 µM | > 100 µM | > 100 µM | > 100 µM | > 100 µM | > 100 µM | > 100 µM | > 100 µM | – | – | – | – | – | – | – | – | – | – | – | –

Reference: PubChem BioAssay (NCI)
